pEC50, pIC50: −log10 of the molar value. Values after ≈ are worked out from the molar mass of the structure shown. Values joined by “and” are separate entries in the source; they are usually repeats but may differ in a detail not shown here. Identical values can stand only once. Like-named read-outs stand apart in the source and are kept apart here. Non-standard residues stand in square brackets, D forms with d. Residues, ends and D or L forms follow the SMILES beside them. Sta = CC(C)C[C@H](N)[C@@H](O)CC(=O)O
Legend:
plasma triglycerides = assay: Rat plasma triglyceride levels after 3 or 5 days BID treatment; format: in vivo; settings: 25 mg/kg po BID for 3 or 5 days, 16 hours after the last dose
Experimental: The efficacy of particular rosuvastatin compounds was then determined in vivo.
112 male SD rats (Harlan) were housed in groups of 6 under a 12 h light dark cycle (lights on 07.00 h) with free access to food (normal laboratory chow) and water. Animals between 148-183 g were allocated to treatment groups of 8 balanced by body weight and treatments were balanced across cages.
The rosuvastatin analogues were made up in 10% PEG300/10% cremophor/80% methyl cellulose (0.5%) (vehicle 1) to make a 5 mg/mL solution. The rosuvastatin compounds used were:
Rosuvastatin was formulated in 0.5% Tween in 0.5% methyl cellulose (vehicle 2) at 5 mg/kg as a suspension.
Rats were orally dosed with vehicle 1, one of the rosuvastatin analogues in vehicle 1 (25 mg/kg), vehicle 2 or rosuvastatin in vehicle 2 (25 mg/kg po), BID for 3 or 5 days.
Sixteen hours after the last treatment, terminal plasma samples were taken, stored at −20° C., and transported on dry ice for analysis of triglyceride levels.
Data for each time-point were analysed by 1-way ANOVA and post-hoc Dunnett's test.

DPPIV = DPPIV (Homo sapiens, UniProt P27487); assay: DPPIV protease inhibition, substrate Gly-Pro-AMC (Example 97); format: biochemical
Sequence of DPPIV (P27487 whole entry, species assumed): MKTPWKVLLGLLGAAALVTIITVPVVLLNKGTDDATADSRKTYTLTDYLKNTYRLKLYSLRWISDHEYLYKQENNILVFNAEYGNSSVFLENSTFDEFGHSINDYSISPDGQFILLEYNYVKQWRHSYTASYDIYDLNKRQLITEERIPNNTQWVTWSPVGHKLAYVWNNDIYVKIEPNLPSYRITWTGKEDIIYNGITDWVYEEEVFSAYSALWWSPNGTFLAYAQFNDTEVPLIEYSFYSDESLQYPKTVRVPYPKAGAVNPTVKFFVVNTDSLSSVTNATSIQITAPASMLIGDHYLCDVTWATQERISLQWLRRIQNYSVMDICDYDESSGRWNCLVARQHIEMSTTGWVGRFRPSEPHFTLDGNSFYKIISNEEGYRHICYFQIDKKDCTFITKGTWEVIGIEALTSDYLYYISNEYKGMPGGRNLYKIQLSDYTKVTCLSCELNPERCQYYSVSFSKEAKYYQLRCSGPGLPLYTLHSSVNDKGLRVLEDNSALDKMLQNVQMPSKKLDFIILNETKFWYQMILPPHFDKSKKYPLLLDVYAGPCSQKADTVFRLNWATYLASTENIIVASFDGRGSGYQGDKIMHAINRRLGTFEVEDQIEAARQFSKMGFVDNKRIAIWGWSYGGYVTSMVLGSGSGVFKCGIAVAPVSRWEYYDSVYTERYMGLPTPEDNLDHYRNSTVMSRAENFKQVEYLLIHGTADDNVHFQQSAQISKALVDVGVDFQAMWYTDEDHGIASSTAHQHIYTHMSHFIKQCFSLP
Experimental: (§1) The solutions of the compounds to be tested were prepared in DMSO at a concentration of 10 mM, divided into aliquots and stored at −20° C. The stock solutions were further diluted with assay buffer to make final test solutions. All the final test solutions contained no more than 2.0% DMSO.
(§2) Data were recorded by PHEARstar^PLUS.
(§3) Each assay was repeated for each compound 10 times.

[1] = system: PathHunter NHRPro cell lines; assay: PathHunter NHRPro cell assay, agonist format (Examples 90-92); format: cell-based; settings: RARβ, NHR Protein Interaction; for pEC50: read-out: RC50 (EC50); for Emax: read-out: Max Response
Experimental: Methodology for Examples 90-92 Cell Handling
PathHunter NHRPro cell lines were expanded from freezer stocks in T25 flasks according to standard procedures and maintained in selective growth media prior to assay.
Once it was established that the cells were healthy and growing normally, cells were passaged from flasks using cell dissociation reagent and seeded into white walled clear bottom 384-well microplates for compound profiling.
For profiling, cells were seeded at a density of 10000 cells per well in a total volume of 20 μL and were allowed to adhere and recover overnight prior to compound addition. Media contained charcoal-dextran filtered serum to reduce the level of hormones present.
Intermediate dilution of compound stocks were generated such that 5 μL of 5× compound could be added to each well with a final DMSO concentration of 1% of total volume.
For profiling compound in agonist mode, the cells were incubated in the presence of compound at 37° C. for 5 hours.
After appropriate compound incubation, assay signal was generated through a single addition of 15 μL (50% v/v) of PathHunter Detection reagent cocktail for agonist and antagonist assays respectively followed by one hour incubation at room temperature.
Microplates were read following signal generation with a PerkinElmer Envision™ instrument for chemiluminescent signal detection.
Dose curves in the presence and absence of compound were plotted using GraphPad Prism or Activity Base.
For the agonist mode, percentage activity was calculated using the following formula: % Activity=100%×(Mean RLU of test sample−mean RLU of vehicle control)/(mean MAX RLU control ligand−mean RLU of vehicle control).

[2] = system: anaerobic bacterial strains; assay: microbe, parasite or virus in culture; format: cell-based, bacteria; settings: read-out: MIC (>90%)
[3] = target: neuraminidase of oseltamivir-sensitive influenza virus (UniProt P03468); format: biochemical
Sequence of neuraminidase of oseltamivir-sensitive influenza virus (P03468 whole entry, looked up): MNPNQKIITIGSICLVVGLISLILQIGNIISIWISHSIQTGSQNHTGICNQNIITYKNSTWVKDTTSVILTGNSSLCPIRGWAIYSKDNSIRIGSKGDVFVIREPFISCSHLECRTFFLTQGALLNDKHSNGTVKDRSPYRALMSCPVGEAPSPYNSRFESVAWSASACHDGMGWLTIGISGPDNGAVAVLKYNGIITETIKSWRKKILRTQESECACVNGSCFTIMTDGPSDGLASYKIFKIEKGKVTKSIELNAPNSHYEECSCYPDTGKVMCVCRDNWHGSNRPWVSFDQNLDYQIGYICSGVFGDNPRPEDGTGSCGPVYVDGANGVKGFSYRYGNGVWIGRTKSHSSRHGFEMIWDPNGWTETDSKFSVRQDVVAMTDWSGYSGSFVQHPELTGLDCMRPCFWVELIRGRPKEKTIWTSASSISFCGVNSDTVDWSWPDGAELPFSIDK

HepG2 cells = assay: HepG2 cytotoxicity, MTT, 72 hours (Examples 93-95); format: cell-based; settings: Cell Loss, Example 94, dosed 0.02-50 μM
Experimental: Methodology for Examples 93-95
A number of analogues were tested for their ability to kill cancer cells.
HepG2 cells were plated on 96-well tissue culture treated polystyrene plates at 0.5×10^4 cells in 100 μL per well. After 24 hr the cells are dosed with test compound at a range of concentrations and incubated for 72 hours. One hour prior to the end of the incubation period, the cells are loaded with MU [yellow; 3-(4,5-dimethyl-2-thiazolyl)-2,5-diphenyl-2H-tetrazolium bromide], the plates are dried and re-solubilised using DMSO. The plates are then scanned using SpectraFluor Plus (TECAN).
Cytotoxicity was assessed using MU. The assay provides a measurement of mitochondrial dehydrogenase activity and cell loss.
A decrease can indicate a loss of cells indicating toxicity due to necrosis, apoptosis or a reduction in cellular proliferation.
A decrease can also indicate an effect on mitochondrial function as mitochondrial dehydrogenasesreduce the MTT [yellow; 3-(4,5-dimethyl-2-thiazolyl)-2,5-diphenyl-2H-tetrazolium bromide] to formazan. The formazan is detected in this assay.
The cells were dosed at concentrations of 0.04, 0.1, 0.4, 1, 4, 10, 40 and 100 μM. The assay was repeated three times at each concentration.
AC50=The concentration at which 50% maximum effect is observed for each cell health parameter.
The cells were dosed at concentrations of 0.02, 0.05, 0.2, 0.5, 2, 5, 20 and 50 μM. The assay was repeated three times at each concentration.
The cells were dosed at concentrations of 0.04, 0.1, 0.4, 1, 4, 10, 40 and 100 μM for bexarotene and the compound of formula 102 when Z is CH═NOH (compound 13a). The cells were dosed at concentrations of 0.02, 0.05, 0.2, 0.5, 2, 5, 20 and 50 μM for the compound of formula 102 when Z is CH═NOMe (compound 13b). The assay was repeated three times at each concentration.

renin = target: T1, renin (Homo sapiens, UniProt P00797); assay: Renin inhibition (Comparative Example 98); format: biochemical
T1 sequence (P00797 67-406): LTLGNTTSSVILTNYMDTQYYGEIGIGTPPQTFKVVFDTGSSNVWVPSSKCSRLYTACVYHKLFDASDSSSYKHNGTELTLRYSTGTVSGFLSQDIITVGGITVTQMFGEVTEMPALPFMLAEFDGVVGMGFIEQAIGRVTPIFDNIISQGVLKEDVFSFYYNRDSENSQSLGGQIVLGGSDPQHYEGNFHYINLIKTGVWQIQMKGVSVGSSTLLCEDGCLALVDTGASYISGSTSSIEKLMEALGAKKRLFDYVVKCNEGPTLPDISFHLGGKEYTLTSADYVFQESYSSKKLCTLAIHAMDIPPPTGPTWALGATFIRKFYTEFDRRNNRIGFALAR
Experimental: as §1, §2, §3

[4] = system: PathHunter NHRPro cell lines; assay: PathHunter NHRPro cell assay, agonist format (Examples 90-92); format: cell-based; settings: for pEC50: read-out: RC50 (EC50)
[5] = Bacteroides fragilis, ATCC25293, 48 h
[6] = Prevotella melaninogenica, ATCC25845, 48 h

COC1C[C@H](OC(=O)c2cccnc2)C[C@@H](/C=C/c2c(-c3ccc(F)cc3)nc(N(C)S(C)(=O)=O)nc2C(C)C)O1 (stereo partly shown)
In vivo (plasma triglycerides) (plasma triglycerides): Reduction in plasma triglycerides

CC(C)OC1C[C@H](OCc2ccccc2)C[C@@H](/C=C/c2c(-c3ccc(F)cc3)nc(N(C)S(C)(=O)=O)nc2C(C)C)O1 (stereo partly shown)
In vivo (plasma triglycerides) (plasma triglycerides): Reduction in plasma triglycerides

CON=C(CC(=O)N1CCn2c(nnc2C(F)(F)F)C1)Cc1cc(F)c(F)cc1F (mixture of isomers) [Compound 24b, 3-(Methoxyimino)-1-(3-(trifluoromethyl)-5,6-dihydro-[1,2,4]triazolo[4,3-a]pyrazin-7(8H)-yl)-4-(2,4,5-trifluorophenyl)butan-1-one]
Activity as inhibitor of DPPIV (in words) (DPPIV): did not exhibit significant activity

CC1=C(/C=C/C(C)=C\C=C\C(C)=C\C(=O)O)C(C)(C)CCC1 [9 Cis Retanoic acid]
Max Response [1]: 87.826 and 98.978
pEC50 [1]: 8.30 and 8.15

COc1ccc(-c2ccc3cc(C(=O)O)ccc3c2)cc1C12CC3CC(CC(C3)C1)C2 [Adapalene]
Emax [1]: 147%
pEC50 [1]: 8.74

COC(Cn1c([N+](=O)[O-])cnc1C)OC [Compound 3a, 1-(2,2-Dimethoxyethyl)-2-methyl-5-nitro-1H-imidazole]
MIC [2, 5]: 0.5 µg/mL (≈ 2.32 µM)
MIC ([2]; Clostridioides difficile, 48 h): ≤ 0.25 µg/mL
MIC ([2]; Clostridium perfringens, 48 h): 1 µg/mL (≈ 4.65 µM)
MIC [2, 6]: 0.5 µg/mL (≈ 2.32 µM)

CON=CCn1c([N+](=O)[O-])cnc1C [Compound 3b, 2-(2-Methyl-5-nitro-1H-imidazol-1-yl)acetaldehyde O-methyl oxime]
MIC [2, 5]: 0.5 µg/mL (≈ 2.52 µM)
MIC ([2]; Clostridioides difficile, 48 h): ≤ 0.25 µg/mL
MIC ([2]; Clostridium perfringens, 48 h): 1 µg/mL (≈ 5.05 µM)
MIC [2, 6]: 0.5 µg/mL (≈ 2.52 µM)

COc1ccc(-c2ccc3cc(C=NO)ccc3c2)cc1C12CC3CC(CC(C3)C1)C2 [Compound 5a, 6-(3-(Adamantan-1-yl)-4-methoxyphenyl)-2-naphthaldehyde oxime]
Emax [1]: 45.1%
pEC50 [1]: 5.89

CON=Cc1ccc2cc(-c3ccc(OC)c(C45CC6CC(CC(C6)C4)C5)c3)ccc2c1 [Compound 5b, 6-(3-(Adamantan-1-yl)-4-methoxyphenyl)-2-naphthaldehyde O-methyl oxime]
Emax [1]: 81.1%
pEC50 [1]: 6.08

N[C@@H](CCN1CCn2c(nnc2C(F)(F)F)C1)Cc1cc(F)c(F)cc1F [Compound 24a, (R)-4-(3-(Trifluoromethyl)-5,6-dihydro-[1,2,4]triazolo[4,3-a]pyrazin-7(8H)-yl)-1-(2,4,5-trifluorophenyl)butan-2-amine]
Activity as inhibitor of DPPIV (in words) (DPPIV): showed an activity
pIC50 (DPPIV; DPPIV, substrate Gly-Pro-AMC): 7.09

COc1ccc(-c2ccc3cc(C=O)ccc3c2)cc1C12CC3CC(CC(C3)C1)C2 [Formula 135; Z is C(O)H]
Max Response [1]: 115.93
pEC50 [1]: 6.85

COc1ccc(-c2ccc3cc(CO)ccc3c2)cc1C12CC3CC(CC(C3)C1)C2 [Formula 135; Z is CH2OH]
Max Response [1]: 131.9
pEC50 [1]: 6.70

Cc1ncc([N+](=O)[O-])n1CCO [Metronidazole, metronidazole, reference compound]
MIC [2, 5]: 0.25 µg/mL (≈ 1.46 µM)
MIC ([2]; Clostridioides difficile, 48 h): ≤ 0.25 µg/mL
MIC ([2]; Clostridium perfringens, 48 h): 0.5 µg/mL (≈ 2.92 µM)
MIC [2, 6]: 0.25 µg/mL (≈ 1.46 µM)

CCOC(=O)C1=C[C@@H](OC(CC)CC)[C@H](NC(C)=O)[C@@H](N)C1 [Oseltamivir, oseltamivir, reference compound]
EC90 [3]: 1.3 nM

CC(=O)c1c(C)c2cnc(Nc3ccc(N4CCNCC4)cn3)nc2n(C2CCCC2)c1=O [PD-0332991]
MEC (minimum effective concentration that significantly crosses vehicle threshold) (HepG2 cells): 0.2 µM
AC50 (HepG2 cells; Homo sapiens, HepG2, read-out: AC50 (concentration at which 50% maximum effect is observed)): 1930 nM

CC(=O)N[C@@H](Cc1c[nH]cn1)C(=O)N1CCC[C@H]1C(=O)N[C@@H](Cc1ccccc1)C(=O)N[C@H](C(=O)N[C@@H](CC(C)C)[C@@H](O)CC(=O)N[C@@H](CC(C)C)C(=O)N[C@@H](Cc1ccccc1)C(N)=O)C(C)C [Positive control, Ac-HPFV-(Sta)-LF-NH2] (Ac-HPFV[Sta]LF-NH2)
pIC50 (renin): 8.08

CC(C)c1nc(N(C)S(C)(=O)=O)nc(-c2ccc(F)cc2)c1/C=C/[C@@H](O)C[C@@H](O)CC(=O)O [Rosuvastatin, reference compound]
In vivo (plasma triglycerides) (plasma triglycerides; 25 mg/kg): Reduction in
In vivo (plasma triglycerides) (plasma triglycerides; listed as rosuvastatin, 25 mg/kg): marked reduction in plasma triglycerides

NC(=O)CC[C@@H]1NC(=O)[C@H](Cc2ccccc2)NC(=O)[C@H](Cc2ccc(O)cc2)NC(=O)[C@@H](N)CSSC[C@@H](C(=O)N2CCC[C@H]2C(=O)N[C@@H](CCCN=C(N)N)C(=O)NCC(N)=O)NC(=O)[C@H](CC(N)=O)NC1=O [Vasopressin]
Max Response ([4]; AVPR2, Arrestin): 101.99
pEC50 ([4]; AVPR2, Arrestin): 9.12

COCCCOc1cc(CC(CC2NC(=O)OC2CC(C(=O)NCC(C)(C)C#N)C(C)C)C(C)C)ccc1OC (stereo not shown) [comparative example]
Anti-influenza neuraminidase activity (in words) [3]: No activity was observed

Angiotensin II (DRVYIHPF; Angiotensin-2; UniProt P01019 25-32, looked up)
Max Response ([4]; AGTR1, Arrestin): 101.02
pEC50 ([4]; AGTR1, Arrestin): 7.99

Reference: patent US8946224B2, “Substituted [1,2,4]triazolo[4,3-A]pyrazines for medicaments and pharmaceutical compositions” (Redx Pharma Limited, priority 2010, dated 2015)
